According to the NIST ThermoML archive (doi:10.1016/j.fluid.2016.02.009):

Conditions: Liquid, Vibrating tube method

CCCCOC [butyl methyl ether]
Conditions	mass density [kg/m3]
283.15 K, 100 kPa	755.88
283.15 K, 5000 kPa	760.82
283.15 K, 10000 kPa	765.42
283.15 K, 15000 kPa	769.77
283.15 K, 20000 kPa	773.91
283.15 K, 25000 kPa	777.86
283.15 K, 30000 kPa	781.65
283.15 K, 35000 kPa	785.29
283.15 K, 40000 kPa	788.8
283.15 K, 45000 kPa	792.18
283.15 K, 50000 kPa	795.45
283.15 K, 55000 kPa	798.61
283.15 K, 60000 kPa	801.68
283.15 K, 65000 kPa	804.67
288.15 K, 100 kPa	750.88
288.15 K, 5000 kPa	756.01
288.15 K, 10000 kPa	760.78
288.15 K, 15000 kPa	765.26
288.15 K, 20000 kPa	769.53
288.15 K, 25000 kPa	773.58
288.15 K, 30000 kPa	777.48
288.15 K, 35000 kPa	781.19
288.15 K, 40000 kPa	784.79
288.15 K, 45000 kPa	788.24
288.15 K, 50000 kPa	791.57
288.15 K, 55000 kPa	794.8
288.15 K, 60000 kPa	797.94
288.15 K, 65000 kPa	800.98
293.15 K, 100 kPa	745.85
293.15 K, 5000 kPa	751.18
293.15 K, 10000 kPa	756.08
293.15 K, 15000 kPa	760.71
293.15 K, 20000 kPa	765.09
293.15 K, 25000 kPa	769.27
293.15 K, 30000 kPa	773.26
293.15 K, 35000 kPa	777.09
293.15 K, 40000 kPa	780.75
293.15 K, 45000 kPa	784.3
293.15 K, 50000 kPa	787.7
293.15 K, 55000 kPa	791
293.15 K, 60000 kPa	794.21
293.15 K, 65000 kPa	797.33
298.15 K, 100 kPa	740.78
298.15 K, 5000 kPa	746.29
298.15 K, 10000 kPa	751.36
298.15 K, 15000 kPa	756.15
298.15 K, 20000 kPa	760.68
298.15 K, 25000 kPa	764.97
298.15 K, 30000 kPa	769.08
298.15 K, 35000 kPa	772.99
298.15 K, 40000 kPa	776.76
298.15 K, 45000 kPa	780.38
298.15 K, 50000 kPa	783.87
298.15 K, 55000 kPa	787.24
298.15 K, 60000 kPa	790.51
298.15 K, 65000 kPa	793.65
303.15 K, 100 kPa	735.68
303.15 K, 5000 kPa	741.39
303.15 K, 10000 kPa	746.66
303.15 K, 15000 kPa	751.6
303.15 K, 20000 kPa	756.25
303.15 K, 25000 kPa	760.68
303.15 K, 30000 kPa	764.89
303.15 K, 35000 kPa	768.9
303.15 K, 40000 kPa	772.76
303.15 K, 45000 kPa	776.46
303.15 K, 50000 kPa	780.03
303.15 K, 55000 kPa	783.46
303.15 K, 60000 kPa	786.77
303.15 K, 65000 kPa	790
308.15 K, 100 kPa	730.53
308.15 K, 5000 kPa	736.43
308.15 K, 10000 kPa	741.88
308.15 K, 15000 kPa	746.98
308.15 K, 20000 kPa	751.8
308.15 K, 25000 kPa	756.35
308.15 K, 30000 kPa	760.67
308.15 K, 35000 kPa	764.79
308.15 K, 40000 kPa	768.74
308.15 K, 45000 kPa	772.53
308.15 K, 50000 kPa	776.18
308.15 K, 55000 kPa	779.69
308.15 K, 60000 kPa	783.07
308.15 K, 65000 kPa	786.36
313.15 K, 100 kPa	725.34
313.15 K, 5000 kPa	731.47
313.15 K, 10000 kPa	737.11
313.15 K, 15000 kPa	742.4
313.15 K, 20000 kPa	747.36
313.15 K, 25000 kPa	752.04
313.15 K, 30000 kPa	756.48
313.15 K, 35000 kPa	760.7
313.15 K, 40000 kPa	764.74
313.15 K, 45000 kPa	768.63
313.15 K, 50000 kPa	772.34
313.15 K, 55000 kPa	775.93
313.15 K, 60000 kPa	779.39
313.15 K, 65000 kPa	782.73
318.15 K, 100 kPa	720.1
318.15 K, 5000 kPa	726.46
318.15 K, 10000 kPa	732.32
318.15 K, 15000 kPa	737.77
318.15 K, 20000 kPa	742.89
318.15 K, 25000 kPa	747.69
318.15 K, 30000 kPa	752.27
318.15 K, 35000 kPa	756.62
318.15 K, 40000 kPa	760.76
318.15 K, 45000 kPa	764.73
318.15 K, 50000 kPa	768.51
318.15 K, 55000 kPa	772.16
318.15 K, 60000 kPa	775.71
318.15 K, 65000 kPa	779.13
323.15 K, 100 kPa	714.8
323.15 K, 5000 kPa	721.41
323.15 K, 10000 kPa	727.49
323.15 K, 15000 kPa	733.12
323.15 K, 20000 kPa	738.42
323.15 K, 25000 kPa	743.37
323.15 K, 30000 kPa	748.07
323.15 K, 35000 kPa	752.53
323.15 K, 40000 kPa	756.76
323.15 K, 45000 kPa	760.83
323.15 K, 50000 kPa	764.7
323.15 K, 55000 kPa	768.43
323.15 K, 60000 kPa	772.05
323.15 K, 65000 kPa	775.54
328.15 K, 100 kPa	709.45
328.15 K, 5000 kPa	716.32
328.15 K, 10000 kPa	722.64
328.15 K, 15000 kPa	728.5
328.15 K, 20000 kPa	733.93
328.15 K, 25000 kPa	739.05
328.15 K, 30000 kPa	743.83
328.15 K, 35000 kPa	748.41
328.15 K, 40000 kPa	752.76
328.15 K, 45000 kPa	756.92
328.15 K, 50000 kPa	760.91
328.15 K, 55000 kPa	764.72
328.15 K, 60000 kPa	768.39
328.15 K, 65000 kPa	771.91
333.15 K, 100 kPa	704.04
333.15 K, 5000 kPa	711.19
333.15 K, 10000 kPa	717.74
333.15 K, 15000 kPa	723.77
333.15 K, 20000 kPa	729.38
333.15 K, 25000 kPa	734.64
333.15 K, 30000 kPa	739.61
333.15 K, 35000 kPa	744.31
333.15 K, 40000 kPa	748.78
333.15 K, 45000 kPa	753.01
333.15 K, 50000 kPa	757.06
333.15 K, 55000 kPa	760.97
333.15 K, 60000 kPa	764.71
333.15 K, 65000 kPa	768.34
